According to PMC5720837, “Identification of a 4-fluorobenzyl L-valinate amide benzoxaborole (AN11736) as a potential development candidate for the treatment of Animal African Trypanosomiasis (AAT)” (Bioorganic & Medicinal Chemistry Letters, 2018):
Values joined by “and” are separate entries in the source; they are usually repeats but may differ in a detail not shown here. Identical values can stand only once.

How the values were obtained:
[1] = test system: Trypanosoma congolense (T. congolense IL-3000 strain), bloodstream form; test: Whole cell Alamar Blue assay, T. congolense (72 h in vitro); assay type: cell-based; settings: T. congolense IL-3000, 72 h in vitro Alamar Blue assay
Protocol: (§1) Activity of compounds 1–71 against T. congolense and T. vivax was determined using the whole cell assays as described ^6 and their IC50 values are summarized in Table 1.
(§2) [6] Assay methods for determination of T. c. and T. v. […] Culture media consisted of complete HMI-9 (IMDM) with 20% bovine serum. To ensure log growth phase, trypanosomes were sub-cultured at appropriate dilutions every 2–3 days. Bloodstream form Trypanosoma vivax (T. vivax) cannot be cultured axenically, therefore trypanosomes (T. vivax STIB719/ILRAD 560 strain) were harvested from a highly parasitemia mouse via cardiac puncture and used directly in the ex vivo drug sensitivity assay on the same day. […] Parasite starting concentrations of 2 × 10^5 (T. c.) and 4 × 10^5 (T. v.) were calculated respectively, using a cell analyzer system or haemo-cytometer, followed by quantification at 536 nm excitation and 588 nm emission wavelengths using a […] reader. Test compounds were prepared as 10 mg/mL DMSO stocks for each assay run. Compounds were assayed in at least three separate, independent test runs and an 11-point dilution curve was used to determine the IC50 values. Data points were averaged to generate sigmoidal dose-response curves and IC50 values were determined using Softmax Pro 5.2 software.

[2] = test system: Trypanosoma vivax (T. vivax STIB719/ILRAD 560 strain), bloodstream form; test: Whole cell Alamar Blue assay, T. vivax (48 h ex vivo); assay type: cell-based; settings: Trypanosoma vivax; T. vivax STIB719/ILRAD 560, 48 h ex vivo Alamar Blue assay
Protocol: as §1, §2

[3] = In vitro metabolic stability, mouse S9; assay type: in vitro ADME; settings: S9 fraction
Protocol: (§3) Selected compounds were screened in both mouse and bovine in vitro metabolic stability assays (mouse S9 and bovine S9), as summarized in Table 2. These two species were chosen because the primary in vivo assays were conducted in mice, and the target animal of this research program is cattle. […] We evaluated the efficacy of selected compounds in two in vivo mouse models of infection, against T. congolense and T. vivax, respectively. Mice were infected with either 1 × 10^5 T. c. parasites or 1 × 10^4 T. v. parasites, and then treated with a test compound via intraperitoneal administration for 1, 2 or 4 consecutive days. The mice were then monitored for the presence of parasitemia for up to 60 days post treatment.[7] We tested in T. c. model first, then followed up with T. v. for interesting compounds. […] We selected compound 5 (AN11736) to progress to exploratory studies to determine the efficacy and safety in a preliminary formulation against induced infections of T. vivax and T. congolense in cattle.[8]

[4] = In vitro metabolic stability, bovine S9; assay type: in vitro ADME; settings: S9 fraction
Protocol: as §3

[5] = test system: T. c. parasites (STIB736/IL1180 strain); test: In vivo mouse model of T. congolense infection; parameters: species or system NMRI female mice; settings: for Efficacy in mouse model T. c., n/m (mice survived / total mice in group): intraperitoneal, monitored 60 days post treatment
Protocol: as §3
(§4) [7] Methods for testing compound efficacy in mouse models: In vivo mouse efficacy studies were performed at the Swiss TPH, using established mouse models of infection for T. c. and T. v. NMRI female mice were independently infected either with 1 × 10^5T. c. parasites/mouse (STIB736/IL1180 strain) or 1 × 10^4T. v. parasites/mouse (STIB719/ILRAD560 strain) using an intraperitoneal route. Parasitemia was allowed to develop over 7 days (T. c.) or 3 days (T. v.), respectively, before treatment was administered. Compounds were administered via intraperitoneal injection in 10% DMSO/water. Four mice were used per treatment group. Mice were monitored for the presence of trypanosomes, via tail blood examination microscopically with twice-per-week parasitemia checks for 60 days post treatment. Parasitemia was graded on a scale of 0–3, with 0 indicating no trypanosomes seen in 20 fields of view, 1 indicating the presence of 1–5 trypanosomes per field, 2 indicating the presence of 6–20 trypanosomes per field and 3 indicating greater than 20 trypanosomes per field. Mice scoring 2 or 3 were immediately euthanized. After 60 days, aparasitemic mice were considered cured. Untreated control mice survive on average for 10 and 6 days post infection for T. c. and T. v., respectively. All in vivo mouse experiments were conducted in accordance with the strict guidelines set out by the Swiss Federal Veterinary Office, under the ethical approval of license number #2813.

[6] = test system: T. v. parasites (STIB719/ILRAD560 strain); test: In vivo mouse model of T. vivax infection; parameters: species or system NMRI female mice; settings: for Efficacy in mouse model T. v., n/m (mice survived / total mice in group): intraperitoneal, monitored 60 days post treatment; for curative efficacy in the T. v.-infected mouse model: single dose of 10 mg/kg, IP
Protocol: as §3, §4

T. congolense = test: Efficacy against induced T. congolense infection in cattle; assay type: in vivo; settings: single intramuscular injection of 10 mg/kg, 100 days post treatment
Protocol: as §3
(§5) [8] Method for testing compound efficacy in cattle: The cattle studies were conducted in accordance with the method described for cattle by Eisler et al. (2001) in studies conducted in fly-proof facilities and using T. congolense and T. vivax isolates that had previously been confirmed resistant in cattle to diminazine (7 mg/kg live weight) and/or isometamidium (1 mg/kg live weight). […]

T. vivax = test: Efficacy against induced T. vivax infection in cattle; assay type: in vivo; settings: single intramuscular injection of 10 mg/kg, 100 days post treatment
Protocol: as §3, §5

| Structure (SMILES) | IC50 [1] [nM] | IC50 ([1]; Trypanosoma congolense, 72 h) [nM] | IC50 [2] [nM] | microsomal CLint [3] [µL/min/mg] | microsomal CLint [4] [µL/min/mg] | Efficacy in mouse model T. c., n/m (mice survived / total mice in group) ([5]; 1 × 5 mg/kg) | Efficacy in mouse model T. c., n/m (mice survived / total mice in group) ([5]; 1 × 10 mg/kg) | Efficacy in mouse model T. c., n/m (mice survived / total mice in group) ([5]; 2 × 10 mg/kg) | cure of T. c.-infected mice ([5]; single 5 mg/kg dose, IP) | Efficacy in mouse model T. v., n/m (mice survived / total mice in group) ([6]; 1 × 10 mg/kg, 10 mg/kg) | Efficacy in mouse model T. v., n/m (mice survived / total mice in group) ([6]; 2 × 10 mg/kg) | curative efficacy in the T. v.-infected mouse model [6] [%] | curative efficacy against T. congolense in cattle (T. congolense) [%] | curative efficacy against T. vivax in cattle (T. vivax) [%] | Efficacy in mouse model T. v., n/m (mice survived / total mice in group) ([6]; 1 × 10 mg/kg) | curative efficacy in the T. c.-infected mouse model ([5]; single dose of 10 mg/kg, IP) [%] |
| --- | --- | --- | --- | --- | --- | --- | --- | --- | --- | --- | --- | --- | --- | --- | --- | --- |
| Cc1c(C(=O)N[C@H](C(=O)OCc2ccc(F)cc2)C(C)C)ccc2c1B(O)OC2 [Compound 5, 4-fluorobenzyl (1-hydroxy-7-methyl-1,3-dihydrobenzo[c][1,2]oxaborole-6-carbonyl)-L-valinate] | 0.14 | 0.15 | 1.3 | 5.4 | 9.3 | 0/4 | 4/4 | 5/5 | unable to cure | 5/5 and 4/4 | 5/5 | 100 | 100 | 100 |  |  |
| Cc1c(C(=O)N[C@H](C(=O)OCc2cccc(N3CCN(C)CC3)c2)C(C)C)ccc2c1B(O)OC2 [Compound 50] |  | 0.32 | 0.48 | 8.6 | 12.7 |  | 1/4 (1 × 10) |  |  |  |  |  |  |  | 4/4 (1 × 10) |  |
| Cc1c(C(=O)N[C@H](C(=O)OCc2cccc(CN(C)C)c2)C(C)C)ccc2c1B(O)OC2 [Compound 51] |  | 0.25 | 0.21 | 1.8 | 5 |  | 0/4 (1 × 10) |  |  |  |  |  |  |  | 4/4 (1 × 10) |  |
| Cc1c(C(=O)N[C@H](C(=O)OCC2CCCCC2)C(C)C)ccc2c1B(O)OC2 [Compound 62] |  | 0.38 | 0.16 | 10 | 20 |  | 2/4 (1 × 10) |  |  |  |  | 100 |  |  | 4/4 (1 × 10) | ≥ 50 |
| Cc1c(C(=O)N[C@H](C(=O)OCC2CCOCC2)C(C)C)ccc2c1B(O)OC2 [Compound 63] |  | 0.39 | 0.09 | 0.9 | 1.5 |  | 1/4 (1 × 10) |  |  |  |  |  |  |  | 4/4 (1 × 10) |  |
| Cc1c(C(=O)N[C@H](C(=O)OC2CCOCC2)C(C)C)ccc2c1B(O)OC2 [Compound 69] |  | 0.47 | 1.6 | 0.7 | 0.6 |  | 1/4 (1 × 10) |  |  |  |  |  |  |  | 1/4 (1 × 10) |  |
| Cc1c(C(=O)N[C@H](C(=O)OC2CCC(F)(F)CC2)C(C)C)ccc2c1B(O)OC2 [Compound 70] |  | 0.34 | 2.28 | 1.5 | 0.3 |  | 1/4 (1 × 10) |  |  |  |  |  |  |  | 4/4 (1 × 10) |  |
| Cc1c(C(=O)N[C@H](C(=O)OCC2CCC(F)(F)CC2)C(C)C)ccc2c1B(O)OC2 [Compound 71] |  | 0.2 | 0.14 | 6.4 | 8.1 |  | 3/4 (1 × 10) |  |  |  |  | 100 |  |  | 4/4 (1 × 10) |  |
